Reference: patent US20100286101A1, “PHARMACEUTICAL COMPOSITION INCLUDING A CORTICOSTEROID AND A VITAMIN D ANALOG HAVING IMPROVED STABILITY” (priority 2009, published 2010)

Assay: Solvent attributes (dipolar, H-bonding, miscibility in mineral oil)
Format: physicochemical

Row | Dipolar | H-bonding | Miscibility in oil (mineral oil) | Compound
1 | Yes | Yes | No | CC(O)CO (stereo not drawn) [Propylene Glycol]
2 | Yes | Yes | No | Polysorbate 80
3 | Yes | Yes | Yes | Sorbitan Sesquioleate
